What was measured:
[1] = target: T1, human IL2 receptor alpha (CD25) (Homo sapiens, UniProt P01589); assay: Surface plasmon resonance binding to IL-2R alpha monomer subunit; conditions: SPR
T1 construct: purchased Abcam Ab221397
T1 sequence (P01589 22-272): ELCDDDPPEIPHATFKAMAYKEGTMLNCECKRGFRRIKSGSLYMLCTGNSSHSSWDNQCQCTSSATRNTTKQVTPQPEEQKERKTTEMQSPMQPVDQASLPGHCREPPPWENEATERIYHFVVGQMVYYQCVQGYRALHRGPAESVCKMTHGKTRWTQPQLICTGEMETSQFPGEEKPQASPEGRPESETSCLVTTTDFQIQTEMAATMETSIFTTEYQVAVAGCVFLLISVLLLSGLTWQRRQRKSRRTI
Description: (§1) The interaction of the IL-2 polypeptides with human IL-2 receptor subunits were measured with Surface Plasmon Resonance (SPR) technology at Crelux, a Wuxi AppTec company, Martinsried, GER. For these studies, anti-His antibodies were bound by amine coupling onto a CMS chip to capture 42 nM of His tagged human IL2 receptor alpha (Abcam, Ab221397) or of His tagged human IL2 receptor beta (Abcam, Ab174003). In other settings, 42 nM of alpha and beta IL2 receptors were mixed and pre-incubated for 30 min before capture of the alpha/beta heterodimer IL2 receptor.
(§2) Regeneration of the surface back to amine coupled anti His antibody was done after every concentration of analyte. To measure the protein association to the receptors, the samples were injected with a flow rate of 50 ul/min for 30 s, followed by 180s buffer only to detect the dissociation. The used running buffer was 1×PBS with 0.05% Tween20. The relative response units (RU, Y-axis) are plotted against time (s, X-axis) and analyzed in a kinetic 1:1 binding model for the monomer receptor binding and with a kinetic heterogenous ligand fit model for the alpha/beta heterodimer binding.
NT indicates the IL-2 polypeptide as not tested.

[2] = target: T2, human IL2 receptor beta (CD122) (Homo sapiens, UniProt P14784); assay: Surface plasmon resonance binding to IL-2R beta monomer subunit; conditions: SPR
T2 construct: purchased Abcam Ab174003
T2 sequence (P14784 27-551): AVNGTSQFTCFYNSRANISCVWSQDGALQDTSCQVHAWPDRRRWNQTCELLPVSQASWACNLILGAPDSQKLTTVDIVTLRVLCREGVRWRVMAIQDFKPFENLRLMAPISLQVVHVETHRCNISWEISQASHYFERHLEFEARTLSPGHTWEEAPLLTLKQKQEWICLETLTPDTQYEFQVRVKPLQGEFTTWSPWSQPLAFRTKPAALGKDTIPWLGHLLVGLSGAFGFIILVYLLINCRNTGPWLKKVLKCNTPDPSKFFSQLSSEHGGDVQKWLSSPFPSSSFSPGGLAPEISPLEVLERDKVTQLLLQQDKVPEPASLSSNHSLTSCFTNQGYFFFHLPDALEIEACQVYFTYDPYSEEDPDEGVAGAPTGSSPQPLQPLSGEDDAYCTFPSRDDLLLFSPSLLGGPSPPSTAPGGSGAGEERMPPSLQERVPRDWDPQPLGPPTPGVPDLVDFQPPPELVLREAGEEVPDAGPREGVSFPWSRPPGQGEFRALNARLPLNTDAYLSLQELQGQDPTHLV
Description: as §1, §2
NT indicates the IL-2 polypeptide was not tested.

[3] = target: T3, alpha/beta heterodimer IL2 receptor (Homo sapiens, UniProt P14784); assay: Surface plasmon resonance binding to IL2R alpha/beta heterodimer
T3 construct: purchased Abcam Ab221397; Ab174003
T3 sequence (P14784 27-239 limits assumed): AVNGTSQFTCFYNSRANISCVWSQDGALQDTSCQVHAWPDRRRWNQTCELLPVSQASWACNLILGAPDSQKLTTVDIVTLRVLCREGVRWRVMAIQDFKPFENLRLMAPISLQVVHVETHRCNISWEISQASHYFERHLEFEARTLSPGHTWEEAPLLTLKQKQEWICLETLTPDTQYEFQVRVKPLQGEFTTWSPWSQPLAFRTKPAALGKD
Description: as §1, §2
Additional surface plasmon resonance experiments were performed to determine the binding characteristics of the modified IL-2 polypeptides with IL2R alpha/beta heterodimers. The experiments were performed as indicated above, but the monomeric subunits were replaced with the IL2R heterodimers. […] In the table below, NT indicates the composition was not tested.
The secondary interactions between IL-2R heterodimers and the modified IL-2 polypeptides were also measured. […] In the table below, NT indicates the composition was not tested.

[4] = tested on: Treg cells (CD4+, CD25Hi, FoxP3+); assay: pStat5 induction in human primary pan T-cells, T-Reg subset; format: cell-based
Description: (§3) An experiment was performed to determine the effect of various IL-2 polypeptides on human T-cell populations. Primary pan T-cells (CD4+, CD8+ and Tregs T cells) were obtained from healthy donor buffy coat by peripheral blood mononuclear cell (PBMC) purification using ficoll gradient centrifugation followed by negative selection with magnetic beads and then cryopreserved until use. […] After incubation, cells were fixed and permeabilized using the Transcription Factor Phospho Buffer kit followed by a surface and intracellular immunostaining for CD4, CD8, CD25, FoxP3, CD45RA and pStat5 to enable cell subset identification and measurement of Stat5 (signal transducer and activator of transcription 5) phosphorylation levels. The FACS (fluorescence activated cell sorting) measurement was done either with a NovoCyte or a Quanteon Flow Cytometer from Acea.
(§4) pStat5 MFI ([…] fluorescence intensity) signals for the T-cell subsets shown in Table 12 were plotted against concentrations of aldesleukin or of modified IL-2 polypeptides. Half maximal effective concentration (EC50) was calculated based on a variable slope, four parameter analysis using GraphPad PRISM software.

[5] = tested on: CD8 Teff cells (CD8+); assay: pStat5 induction in human primary pan T-cells, CD8 Teff subset; format: cell-based
Description: as §3, §4

[6] = mouse, in vivo, iv, 0.8 mg/kg
Description: A single-dose pharmacokinetic/pharmacodynamic experiment was performed in mice. Naïve, 6-8 weeks old, C57Bl/6 mice (Shanghai SLAC Laboratory Animal Co., LTD, Shanghai, China) received a single bolus intravenous (i.v.) injection of 52 nmoles/kg wild type or of modified IL-2 polypeptides. […] At indicated time points, blood samples were collected in the presence of EDTA either via tail vein sampling or via cardiac puncture (end-point).
Blood samples were immediately processed by centrifugation. Plasma samples were cryopreserved at −80° C. until bioanalysis.
Bioanalysis of plasma samples was performed using a qualified human IL-2 LegendPlex bead assay (Biolegend, #740717, #740368, #740758). Concentrations of wild type and of modified IL-2 polypeptides and the internal standard in samples derived from plasma were determined using human IL-2 LegendPlex bead assay. PK data were subjected to a non-compartmental pharmacokinetic analysis by using the Phoenix WinNonlin software (version 6.3, Pharsight, Mountain View, CA). The linear/log trapezoidal rule was applied in obtaining the PK parameters.
The PK parameters were determined by means of non-compartmental analysis (NCA) using R package “PK”. The area under plasma concentration-time curves (AUC0-last) were calculated using the linear trapezoidal rule on the arithmetic means at the different time points while the extrapolation necessary for the AUC0-inf and AUMC 0-Inf was achieved assuming an exponential decay on the last 3 time points.

[7] = tested on: Tregs (CD4+, FoxP3+, CD25Hi); assay: Single-dose pharmacodynamics in mice, Tregs (pSTAT5, Ki67, frequency); format: in vivo, C57Bl/6 mice; conditions: for Tregs % of pSTAT5 positive cells / Ratio Tregs/CD8+: 1 h after injection; for Ratio Tregs/CD8+: pSTAT5 positive cells
Description: (§5) Cell pellets were treated with 1×Lyse/Fix buffer (BD Bioscience, 558050) during 10 min. […] Cells were then permeabilized using cold BD Perm Buffer III and stained with antibodies against either Ki67, Siglec-F, CD4, CD8, FoxP3, CD62L, CD44 or pSTAT5. The FACS (fluorescence activated cell sorting) measurement was done with a Fortessa X-20 Flow Cytometer from BD. For each cell subset indicated below in Table 14, the percentage of pSTAT5 positive cells, and percentage of Ki67 positive cells, cell counts, and cell frequency was determined. [table]

[8] = tested on: CD8+ Teff (CD3+, CD8+); assay: Single-dose pharmacodynamics in mice, CD8+ Teff (pSTAT5, Ki67, frequency); format: in vivo, C57Bl/6 mice; conditions: for CD8+ % of pSTAT5 positive cells: 1 h after injection
Description: as §5

[9] = mice, 0.8 mg/kg, at peak time point

Ka ([1]; Alpha (CD25) monomer): 6.74e+06 M⁻¹ s⁻¹ | dissociation rate constant (koff) ([1]; Alpha (CD25) monomer): 0.154 s⁻¹ | Kd ([1]; read-out: observed Kd with IL-2Rα): 23 nM | Ka ([2]; Beta (CD122) monomer): 319000 M⁻¹ s⁻¹ | koff (dissociation rate constant) ([2]; Beta (CD122) monomer): 0.289 s⁻¹ | Kd ([2]; as stated in text (FIG. 3), read-out: Kd, β subunit of the IL-2 receptor): ~900 nM | Ka ([3]; primary interaction): 8.01e+06 M⁻¹ s⁻¹ | dissociation rate constant (koff, 1/s) ([3]; primary interaction): 0.00175 s⁻¹ | Ka ([3]; secondary interaction): 5.13e+06 M⁻¹ s⁻¹ | EC50 ([4]; pStat5 MFI, 20 min to 40 min stimulation, read-out: Tregs EC50): 0.019 nM | EC50 ([5]; pStat5 MFI, 20 min to 40 min stimulation): 9.07 nM
Substance: Aldesleukin: aldesleukin (SEQ ID NO: 2), comparator IL-2
potency in inducing Treg cells versus Teff cells (in words) ([4]; pStat5 dose response curves): substantially more potent in inducing Treg cells than Teff cells | CD8/Tregs ([5]; ratio of CD8+ EC50 to Tregs EC50): 477 | AUC0-last [6]: 1227 ng·h/mL | AUCD [6]: 1534 (ng/mL*h)*(mg/kg) | Cl [6]: 10.85 mL/min/kg | MRTlast [6]: 36.6 min | T1/2 [6]: 20.8 min | Timepoint at Peak Tregs ([7]; Ki67+ cells, mice, 0.8 mg/kg): 20 h | Timepoint at Peak Tregs ([7]; frequency within CD3+, mice, 0.8 mg/kg): 20 h | Tregs % of Ki67+ positive cells [7, 9]: 28.3 ± 3.7% | Tregs % of Tregs within CD3+ [7, 9]: 3.52 ± 0.4% | Tregs % of pSTAT5 positive cells ([7]; mice, 0.01 mg/kg): 81.0 ± 5.8% | Tregs % of pSTAT5 positive cells ([7]; mice, 0.03 mg/kg): 86.9 ± 5.2% | Tregs % of pSTAT5 positive cells ([7]; mice, 0.1 mg/kg): 91.1 ± 2.9% | Tregs % of pSTAT5 positive cells ([7]; mice, 0.3 mg/kg): 96.2 ± 1.3% | Tregs % of pSTAT5 positive cells ([7]; mice, 0.8 mg/kg): 93.3 ± 3.8% | Ratio Tregs/CD8+ ([7]; 0.01 mg/kg): 3.8 | Ratio Tregs/CD8+ ([7]; 0.03 mg/kg): 2.8 | Ratio Tregs/CD8+ ([7]; 0.1 mg/kg): 3.1 | Ratio Tregs/CD8+ ([7]; 0.3 mg/kg): 1.5 | Ratio Tregs/CD8+ ([7]; 0.8 mg/kg): 1.3 | CD8+ % of CD8+ within CD3+ ([8]; 0.8 mg/kg, at peak time point): 32.1 ± 3^ % | CD8+ % of Ki67+ positive cells ([8]; 0.8 mg/kg, at peak time point): 19.6 ± 3^ % | CD8+ % of pSTAT5 positive cells ([8]; 0.01 mg/kg): 21.3 ± 6.7% | CD8+ % of pSTAT5 positive cells ([8]; 0.03 mg/kg): 31.3 ± 6.2% | CD8+ % of pSTAT5 positive cells ([8]; 0.1 mg/kg): 29.6 ± 4.4% | CD8+ % of pSTAT5 positive cells ([8]; 0.3 mg/kg): 63.2 ± 9.0% | CD8+ % of pSTAT5 positive cells ([8]; 0.8 mg/kg): 74.1 ± 11% | Timepoint at Peak Teff ([8]; Ki67+ cells, 0.8 mg/kg): 48 h | Timepoint at Peak Teff ([8]; frequency within CD3+, 0.8 mg/kg): 36 h

Reference: patent US12521441B2, “Modified IL-2 polypeptides and uses thereof” (Bright Peak Therapeutics AG, priority 2020, dated 2026)
